# Assay results reported in the supplement of paper PMC10307832.
# Columns and labels:
# Experiment in all cases: relative viability (nuclei count vs DMSO), 5 days (fraction); higher = more cells survive
# Ibrutinib + Pemetrexed = compound: C=CC(=O)N1CCC[C@@H](n2nc(-c3ccc(Oc4ccccc4)cc3)c3c(N)ncnc32)C1 [Ibrutinib] + Nc1nc2[nH]cc(CCc3ccc(C(=O)N[C@@H](CCC(=O)O)C(=O)O)cc3)c2c(=O)[nH]1 [Pemetrexed] (partner 0.2 µM)
# Procedure, shortened: (§1)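 Cells from lung cancer lines were seeded into 1536-well plates and, one day later, dosed by pin tool. Treatments were either a single drug or a fixed dose of an anchor drug with five library-drug doses (not always all listed) in √10 steps. After 5 days, nuclei were stained in a one-step fixation (final 0.05% Triton X-100, 1% formaldehyde, 1 ug/ml Hoechst) and counted on 4× images, and relative viability is the treated-to-vehicle nuclei ratio, as the median of duplicate plates.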
# BMX-IN-1 + Linsitinib = compound: C=CC(=O)Nc1cc(-n2c(=O)ccc3cnc4ccc(-c5ccc(NS(C)(=O)=O)cc5)cc4c32)ccc1C [BMX-IN-1] + C[C@]1(O)C[C@@H](c2nc(-c3ccc4ccc(-c5ccccc5)nc4c3)c3c(N)nccn32)C1 [Linsitinib] (partner 1 µM)
# Procedure, shortened: as §1
# BMX-IN-1 + Phenformin = compound: C=CC(=O)Nc1cc(-n2c(=O)ccc3cnc4ccc(-c5ccc(NS(C)(=O)=O)cc5)cc4c32)ccc1C [BMX-IN-1] + N=C(N)NC(=N)NCCc1ccccc1 [Phenformin] (partner 250 µM)
# Procedure, shortened: as §1
# PAC-1 + Tozasertib = compound: C=CCc1cccc(/C=N/NC(=O)CN2CCN(Cc3ccccc3)CC2)c1O [PAC-1] + Cc1cc(Nc2cc(N3CCN(C)CC3)nc(Sc3ccc(NC(=O)C4CC4)cc3)n2)n[nH]1 [Tozasertib] (partner 0.1 µM)
# Procedure, shortened: as §1
Cell Line,relative viability (Ibrutinib + Pemetrexed; first compound 0.005 µM),relative viability (Ibrutinib + Pemetrexed; first compound 0.01581 µM),relative viability (Ibrutinib + Pemetrexed; first compound 0.05 µM),relative viability (Ibrutinib + Pemetrexed; first compound 0.1581 µM),relative viability (Ibrutinib + Pemetrexed; first compound 0.5 µM),relative viability (BMX-IN-1 + Linsitinib; first compound 0.02 µM),relative viability (BMX-IN-1 + Linsitinib; first compound 0.2 µM),relative viability (BMX-IN-1 + Linsitinib; first compound 0.6325 µM),relative viability (BMX-IN-1 + Linsitinib; first compound 2 µM),relative viability (BMX-IN-1 + Phenformin; first compound 0.02 µM),relative viability (BMX-IN-1 + Phenformin; first compound 0.2 µM),relative viability (BMX-IN-1 + Phenformin; first compound 0.6325 µM),relative viability (BMX-IN-1 + Phenformin; first compound 2 µM),relative viability (PAC-1 + Tozasertib; first compound 0.02 µM),relative viability (PAC-1 + Tozasertib; first compound 0.06325 µM),relative viability (PAC-1 + Tozasertib; first compound 0.2 µM),relative viability (PAC-1 + Tozasertib; first compound 2 µM)
HOP-62,0.415,0.32,0.434,0.446,0.879,0.959,1,1.02,0.947,0.567,0.869,0.752,0.772,0.346,0.395,0.349,0.355
IA-LM,–,–,–,–,–,0.701,0.674,0.47,0.6,–,–,–,–,–,–,–,–
LC-2-ad,0.279,0.272,0.274,0.258,0.293,1.03,0.861,0.823,0.852,0.553,0.555,0.722,0.617,0.456,0.48,0.357,0.449
LCLC-97TM1,0.234,0.208,0.22,0.232,0.249,0.202,0.166,0.162,0.162,0.383,0.455,0.503,0.471,0.22,0.286,0.217,0.225
LCLC-103H,0.43,0.467,0.467,0.464,0.544,1.12,1.06,1.09,1.14,0.304,0.389,0.319,0.317,0.56,0.492,0.494,0.463
LK-2,0.194,0.328,0.263,0.225,0.26,0.798,0.792,0.696,0.765,0.487,0.505,0.473,0.548,0.174,0.186,0.199,0.175
LOU-NH91,0.426,0.404,0.449,0.377,0.543,–,0.976,0.993,0.919,0.411,–,0.882,0.704,0.624,0.7,0.645,0.679
LU99A,0.217,0.211,0.205,0.206,0.412,0.547,0.533,0.532,0.535,0.817,0.811,1.06,0.759,0.309,0.254,0.247,0.286
LXF-289,0.936,0.927,0.915,0.81,1.01,0.982,1.05,1.07,1.04,0.481,0.521,0.538,0.536,0.148,0.234,0.197,0.165
NCI-H23,0.698,0.614,0.845,0.527,0.812,0.614,0.606,0.471,0.548,0.724,0.956,0.828,0.838,0.323,0.384,0.366,0.383
NCI-H322M,0.659,0.572,0.605,0.537,0.536,0.911,0.971,0.891,0.975,0.867,0.821,0.795,0.791,0.496,0.537,0.467,0.477
NCI-H358,0.165,0.18,–,0.171,0.16,1,0.732,0.816,0.806,0.355,0.342,0.384,0.324,0.103,0.101,0.0952,0.109
NCI-H522,1.12,0.789,0.795,0.925,0.956,–,–,–,–,0.77,0.64,0.669,0.635,0.598,0.582,0.62,0.469
NCI-H727,–,–,–,–,–,0.325,0.393,0.261,0.27,0.532,0.546,0.584,0.392,0.679,0.585,0.589,0.602
NCI-H1299,–,–,–,–,–,1.2,0.986,1.13,1.12,–,–,–,–,–,–,–,–
NCI-H1563,0.623,0.812,0.741,0.706,0.657,1.16,1.33,1.16,1.18,0.664,0.644,0.648,0.642,–,–,–,–
NCI-H1623,–,–,–,–,–,–,–,–,–,0.527,0.676,0.585,0.601,0.42,0.43,0.427,0.482
NCI-H1648,0.796,0.655,0.569,0.961,0.751,–,–,–,–,–,–,–,–,0.6,0.606,0.464,0.488
NCI-H1650,0.347,0.308,0.348,0.42,0.287,–,–,–,–,0.493,0.44,0.446,0.413,0.361,0.393,0.522,0.375
NCI-H1703,–,–,–,–,–,0.945,0.666,0.712,0.746,–,–,–,–,–,–,–,–
NCI-H1792,–,0.67,0.96,0.818,0.596,0.431,0.795,0.449,0.51,0.235,0.354,0.292,0.312,–,–,–,–
NCI-H2170,0.248,0.266,0.264,0.259,0.21,–,–,–,–,0.375,0.4,0.415,0.416,0.693,0.776,0.805,0.712
NCI-H2342,0.455,0.806,0.618,0.723,0.715,–,–,–,–,0.651,0.7,0.55,0.617,0.521,0.564,0.525,0.61
SW 900,0.456,0.48,0.478,0.482,0.49,–,–,–,–,0.545,0.82,0.614,0.543,0.581,0.61,0.473,0.465
